The test deals with T1, HDM2 (Homo sapiens, UniProt Q00987).
T1 construct: Thioredoxin (N); made in house; host or cells: E. coli strain BL21(DE3)Rosetta
Description: HDM2 FRET assay (inhibition of binding of FITC labeled p53-pocket peptide to HDM2). The following applies: for IC50: read-out: FRET IC50. A digest of the protocol:
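Displacement of FITC-p53 peptide (3 nM) from His-tagged HDM2 (0.5 nM) is measured by Tb-to-fluorescein FRET in PBS, 0.01% BSA, 0.01% Tween-20. IC50 values derive from 10-point curves.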

Setting [1] is: 0.5 nM HDM2 (residues 17 to 125), 3nM peptide, two hour incubation at room temperature.

Where two headings read alike, the source gives them in different places.

T1 sequence (Q00987 17-125): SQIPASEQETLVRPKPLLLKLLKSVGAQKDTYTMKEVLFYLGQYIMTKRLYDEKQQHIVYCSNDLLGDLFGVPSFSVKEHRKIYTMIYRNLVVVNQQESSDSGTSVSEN

Turning to `CC(C)c1ccnc(-c2nc3nc(-c4nnn[nH]4)nc(N[C@H](C)C4CCC4)c3n2C[C@H]2CC[C@H](C)CC2)c1` [Example 12.8, N-[(1R)-1-cyclobutylethyl]-7-[(trans-4-methylcyclohexyl)methyl]-8-[4-(propan-2-yl)pyridin-2-yl]-2-(1H-tetrazol-5-yl)-7H-purin-6-amine], the IC50 under setting [1] is 1.91 nM.

As to `C[C@@H](Nc1nc(-c2noc(=O)[nH]2)nc2nc(C3(O)CCC3)n(C[C@H]3CC[C@H](C)CC3)c12)C1CCC1` [Example 22.67, 3-(6-{[(1R)-1-cyclobutylethyl]amino}-8-(1-hydroxycyclobutyl)-7-[(trans-4-methylcyclohexyl)methyl] -7H-purin-2-yl)-1,2,4-oxadiazol-5(2H)-one], the concentration for half-maximal inhibition (IC50) (Table 22) was found to be 19.3 nM.

For the molecule `COC(c1ccccc1C#N)c1nc2nc(-c3noc(=O)[nH]3)nc(-c3cncc(Cl)c3)c2n1C[C@H]1CC[C@H](C)CC1` (mixture of isomers) [Example 23.109, 2-{[6-(5-chloropyridin-3-yl)-7-[(trans-4-methylcyclohexyl)methyl]-2-(5-oxo-4,5-dihydro-1,2,4-oxadiazol-3-yl)-7H-purin-8-yl](methoxy)methyl}benzonitrile], under “Table 23”, the concentration for half-maximal inhibition (IC50) came out at 0.707 nM.

Take `C[C@@H](Nc1nc(NC(C)(C)C(=O)O)nc2nc(N3CCOC[C@H]3c3ccccc3)n(C[C@H]3CC[C@H](C)CC3)c12)C1CCC1` [Example 13.5, N-(6-{[(1R)-1-cyclobutylethyl]amino}-7-[(trans-4-methylcyclohexyl)methyl]-8-[(3R)-3-phenylmorpholin-4-yl]-7H-purin-2-yl)-2-methylalanine]: the concentration for half-maximal inhibition (IC50) under setting [1] came out at 260 nM.

`C[C@H]1CC[C@H](Cn2c(N3CCOC[C@H]3c3ccccc3)nc3nc(-c4noc(=O)[nH]4)nc(-c4cccc(C(F)F)c4)c32)CC1` [Example 16.31, 3-{6-[3-(difluoromethyl)phenyl]-7-[(trans-4-methylcyclohexyl)methyl]-8-[(3R)-3-phenylmorpholin-4-yl]-7H-purin-2-yl}-1,2,4-oxadiazol-5(4H)-one]: under setting [1], the IC50 turned out to be 7.11 nM.

Turning to `CC(C)CN(C)C(C)c1nc2nc(C(=O)O)nc(N[C@H](C)C3CCC3)c2n1Cc1ccc(C(F)(F)F)cc1` (stereo partly drawn) [Example 10.9, 6-(((R)-1-cyclobutylethyl)amino)-8-(1-(isobutyl(methyl)amino)ethyl)-7-(4-(trifluoromethyl)benzyl)-7H-purine-2-carboxylic acid], the IC50 (Table 10) was determined as 21.2 nM.

For `C[C@@H](Nc1nc(-c2noc(=O)[nH]2)nc2nc(N3CCCCC3c3cccnc3)n(C[C@H]3CC[C@H](C)CC3)c12)C1CCC1` (single isomer, unassigned) [Example 11.50], the IC50 (Table 11) turned out to be 14.3 nM.

As for `C[C@@H](Nc1nc(-c2noc(=O)[nH]2)nc2nc(N(C)CC(C)(C)C)n(C[C@H]3CC[C@H](C)CC3)c12)C1CCC1` [Example 11.43, 3-(6-{[(1R)-1-cyclobutylethyl]amino}-8-[(2,2-dimethylpropyl)(methyl)amino]-7-[(trans-4-methylcyclohexyl)methyl]-7H-purin-2-yl)-1,2,4-oxadiazol-5(2H)-one], the IC50 (Table 11) was 19.4 nM.

Regarding `CC(C)C[C@H]1CCCCN1c1nc2nc(-c3noc(=O)[nH]3)nc(N[C@H](C)C3CCC3)c2n1C[C@H]1CC[C@H](C)CC1` [Example 11.83, 3-(6-{[(1R)-1-cyclobutylethyl]amino}-7-[(trans-4-methylcyclohexyl)methyl]-8-[(2R)-2-(2-methylpropyl)piperidin-1-yl]-7H-purin-2-yl)-1,2,4-oxadiazol-5(4H)-one], the IC50 (Table 11) was determined as 11.5 nM.

With `C[C@H](Nc1nc2nc(C(=O)O)nc(N[C@H](C)C3CCC3)c2n1Cc1ccc(C(F)(F)F)cc1)c1ccccc1` [Example 9.16, 6-{[(1R)-1-cyclobutylethyl]amino}-8-{[(1S)-1-phenylethyl]amino}-7-[4-(trifluoromethyl)benzyl]-7H-purine-2-carboxylic acid], the half-inhibitory concentration (IC50) (Table 9) is 1.91 nM.

For the molecule `C[C@H]1CC[C@H](Cn2c(C3CC3)nc3nc(-c4noc(=O)[nH]4)nc(-c4cccc(Cl)c4)c32)CC1` [Example 24.2, 3-{6-(3-chlorophenyl)-8-cyclopropyl-7-[(trans-4-methylcyclohexyl)methyl]-7H-purin-2-yl}-1,2,4-oxadiazol-5(4H)-one], the IC50 under setting [1] was 41.7 nM.

Turning to `CCC1CCN(c2nc(C(=O)O)nc3nc(-c4cccc(C)c4)n(Cc4ccc(C(F)(F)F)cc4)c23)C1` (centres unmarked) [Example 6.1, 6-(3-ethylpyrrolidin-1-yl)-8-(3-methylphenyl)-7-[4-(trifluoromethyl)benzyl]-7H-purine-2-carboxylic acid], the inhibition at 1 µM (read-out: inh. at 1000 nM (FRET)) is 41%.

In the case of `C[C@@H]1COC[C@@H](C)N1c1nc2nc(-c3noc(=O)[nH]3)nc(-c3cccc(Cl)c3)c2n1C[C@H]1CC[C@H](C)CC1` [Example 16.60, 3-{6-(3-chlorophenyl)-8-[(3R,5R)-3,5-dimethylmorpholin-4-yl]-7-[(trans-4-methylcyclohexyl)methyl]-7H-purin-2-yl}-1,2,4-oxadiazol-5(4H)-one], the half-maximal inhibitory concentration (IC50) under setting [1] was 2.23 nM.

As to `CC(C)c1ccnc(-c2nc3nc(-c4noc(=O)[nH]4)nc(N[C@H](C)C4CCC4)c3n2CC2CCC(C)(C)CC2)c1` [Example 18.9, (R)-3-(6-((1-cyclobutylethyl)amino)-7-((4,4-dimethylcyclohexyl)methyl)-8-(4-isopropylpyridin-2-yl)-7H-purin-2-yl)-1,2,4-oxadiazol-5(4H)-one], under “Table 18”, the IC50 came out at 394 nM.

Consider `C[C@@H](Nc1nc(-c2noc(=O)[nH]2)nc2nc(C(O)C3CCCC3)n(C[C@H]3CC[C@H](C)CC3)c12)C1CCC1` (stereo partly drawn) [Example 22.47, 3-(6-{[(1R)-1-cyclobutylethyl]amino}-8-[cyclopentyl(hydroxy)methyl]-7-[(trans-4-methylcyclohexyl)methyl] -7H-purin-2-yl)-1,2,4-oxadiazol-5(4H)-one], for which the half-maximal inhibitory concentration (IC50) (Table 22) was found to be 5.04 nM.

With `Cc1nc(C(C)(F)c2nc3nc(-c4noc(=O)[nH]4)nc(N[C@H](C)C4CCC4)c3n2C[C@H]2CC[C@H](C)CC2)c(C)s1` (single isomer, unassigned) [Example 22.75], the IC50 (Table 22) was determined as 5.48 nM.

With `C[C@H]1CC[C@H](Cn2c(Sc3ccccc3)nc3nc(-c4n[nH]c(=O)o4)nc(-c4cncc(Cl)c4)c32)CC1` [Example 19.6, 5-[6-(5-chloropyridin-3-yl)-7-[(trans-4-methylcyclohexyl)methyl]-8-(phenylsulfanyl)-7H-purin-2-yl]-1,3,4-oxadiazol-2(3H)-one], the IC50 (Table 19) turned out to be 3.14 nM.

On to `C[C@H]1CC[C@H](Cn2c(N3CCC[C@H]3C(F)(F)F)nc3nc(-c4noc(=O)[nH]4)nc(-c4cncc(Cl)c4)c32)CC1` [Example 16.74, 3-{6-(5-chloropyridin-3-yl)-7-[(trans-4-methylcyclohexyl)methyl]-8-[(2S)-2-(trifluoromethyl)pyrrolidin-1-yl]-7H-purin-2-yl}-1,2,4-oxadiazol-5(4H)-one], for which, under setting [1], the IC50 was determined as 0.585 nM.

Regarding `C[C@@H](Nc1nc(-c2noc(=O)[nH]2)nc2nc(N(C)CC3(C)CCN(C)C3)n(Cc3ccc(C(F)(F)F)cc3)c12)C1CCC1` (stereo partly drawn) [Example 9.98, 3-(6-{[(1R)-1-cyclobutylethyl]amino}-8-{[(1,3-dimethylpyrrolidin-3-yl)methyl] (methyl)amino}-7-[4-(trifluoromethyl)benzyl]-7H-purin-2-yl)-1,2,4-oxadiazol-5(4H)-one], the IC50 (Table 9) turned out to be 71 nM.

Consider `C[C@@H](Nc1nc(-c2n[nH]c(=O)o2)nc2nc(N3CCOC4CCCC43)n(C[C@H]3CC[C@H](C)CC3)c12)C1CCC1` (single isomer, unassigned) [Example 11.140], for which the concentration for half-maximal inhibition (IC50) (Table 11) was 9.87 nM.

Take `Cc1cccc(-c2nc3nc(C(=O)O)nc(N[C@H](C)C(C)C)c3n2Cc2ccc(C(F)(F)F)cc2)c1` [Example 6.48, 6-{[(1R)-1,2-dimethylpropyl]amino}-8-(3-methylphenyl)-7-[4-(trifluoromethyl)benzyl]-7H-purine-2-carboxylic acid]: the half-inhibitory concentration (IC50) (Table 6) was found to be 145 nM.

Consider `Cc1cccc(-c2nc3nc(C(=O)O)nc(N[C@@H](C)c4ccc(Cl)cc4)c3n2Cc2ccc(C(F)(F)F)cc2)c1` [Example 6.46, 6-{[(1S)-1-(4-chlorophenyl)ethyl]amino}-8-(3-methylphenyl)-7-[4-(trifluoromethyl)benzyl]-7H-purine-2-carboxylic acid], for which, for the setting “Table 6”, the IC50 came out at 4120 nM.

Regarding `Cc1cccc(-c2nc3nc(C(=O)O)nc(NC(C)C(C)(C)C)c3n2Cc2ccc(C(F)(F)F)cc2)c1` (centres unmarked) [Example 6.74, 8-(3-methylphenyl)-7-[4-(trifluoromethyl)benzyl]-6-[(1,2,2-trimethylpropyl)amino]-7H-purine-2-carboxylic acid], the half-maximal inhibitory concentration (IC50) (Table 6) came out at 552 nM.

For the molecule `C[C@@H](Nc1nc(-c2noc(=O)[nH]2)nc2nc(N3CCCC[C@H]3c3ccccc3)n(C[C@H]3CC[C@H](C)CC3)c12)C1CCC1` [Example 11.15, 3-(6-{[(1R)-1-cyclobutylethyl]amino}-7-[(trans-4-methylcyclohexyl)methyl]-8-[(2S)-2-phenylpiperidin-1-yl]-7H-purin-2-yl)-1,2,4-oxadiazol-5(4H)-one], the IC50 (Table 11) is 2.81 nM.

As for `CC(Nc1nc2nc(C(=O)O)nc(N[C@H](C)C3CCC3)c2n1Cc1ccc(C(F)(F)F)cc1)c1cccnc1` (stereo partly drawn) [Example 9.30, 6-{[(1R)-1-cyclobutylethyl]amino}-8-[(1-pyridin-3-ylethyl)amino]-7-[4-(trifluoromethyl)benzyl]-7H-purine-2-carboxylic acid], the 50% inhibitory concentration (IC50) (Table 9) worked out at 3.05 nM.

For `C[C@H]1CC[C@H](Cn2c(N3CCOC[C@H]3c3ccccc3)nc3nc(-c4noc(=O)[nH]4)nc(-c4ccnc(Cl)c4)c32)CC1` [Example 16.110, 3-{6-(2-chloropyridin-4-yl)-7-[(trans-4-methylcyclohexyl)methyl]-8-[(3R)-3-phenylmorpholin-4-yl]-7H-purin-2-yl}-1,2,4-oxadiazol-5(4H)-one], the half-maximal inhibitory concentration (IC50) under setting [1] was determined as 1.14 nM.
